Data set [1] deals with T1, human 5-HT1A receptor (Homo sapiens (Human), UniProt P08908). As to the kind of experiment: Test 1: binding activity for human 5-HT1A receptor ([3H]8-OH-DPAT, CHO cell membrane fraction). An outline of the steps:
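Membranes incubated with [3H]8-OH-DPAT and compound for 60 min at room temperature, then filtered on polyethylenimine-coated glass-fibre plates and counted by liquid scintillation. IC50 from Hill analysis; Ki = IC50/(1+S/Kd), Kd from saturation binding on the same membranes.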

For data set [2], the target named is T2, human 5-HT2A receptor (Homo sapiens (Human), UniProt P28223). Briefly: Test 1: binding activity for human 5-HT2A receptor ([3H]Ketanserin, CHO cell membrane fraction). The procedure, abridged: (§1)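 Compound displacement of [3H]ketanserin at 5-HT2A or [3H]spiperone at D2 was measured in CHO membrane fractions after 60 min at room temperature, with filtration and scintillation counting. IC50 was converted to Ki by Cheng–Prusoff using ligand concentration and Kd from saturation binding.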

The target of a further data set is human D2 receptor (Homo sapiens (Human), UniProt P14416). Briefly: Test 1: binding activity for human D2 receptor ([3H]Spiperone, CHO cell membrane fraction). The following applies: for Ki: human D2 receptor, [3H]Spiperone; for D2 Ki/5-HT1A Ki / D2 Ki/5-HT2A Ki: selectivity ratio. The procedure, abridged: as §1
For data set [3], the target named is T1, human 5-HT1A receptor. As to the kind of experiment: Test 2: agonist activity for human 5-HT1A receptor ([35S]GTPγS binding). The following applies: for EC50: [35S]GTPγS binding, concentration at which half the activity of Emax was obtained; for Emax at 10 µM: agonist activity in the presence of 10 μM of compound, relative to 100 μmol/L 5-HT. In kind it is biochemical. An outline of the steps: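 [35S]GTPγS binding read-out: after 60 min at room temperature with test compound in GDP buffer, human 5-HT1A receptor CHO membranes were vacuum-filtered and retained radioactivity scintillation-counted. Agonist activity calculated by formula.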

Data set [4] deals with T2, human 5-HT2A receptor. Briefly: Test 3: antagonist activity for human 5-HT2A receptor (aequorin luminescence, CHO-K1 cells). In kind it is cell-based. The following applies: CHO-K1 cells, 1 nmol/L 5-HT. An outline of the steps: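 CHO-K1 cells transiently co-expressing aequorin, Gα16 and receptor; compound in DMSO added and luminescence recorded on FDSS/μCELL.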
The nature of data set [5]: Test 4: metabolic stability test in human hepatic microsome. Type of data set: in vitro ADME. The following applies: 0.1 mg/mL microsome, 0.1 μmol/L compound, 37° C., 30 minutes. An outline of the steps: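 LC-MS quantified remaining parent after 30 min, 37° C, in pH 7.4 25 mmol/L phosphate containing 0.1 mg/mL human hepatic microsomes, 3.2 mmol/L NADPH and 0.1 μmol/L test compound. Value given as −LN(residual ratio)/30/0.1, mL/min/mg protein.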

Another data set deals with hERG channel (Homo sapiens (Human), UniProt Q12809). As to the kind of experiment: Test 6-1: inhibitory activity for hERG channel (auto patch clamp, Qpatch). Type of data set: cell-based. To be noted: for IC50: whole cell auto patch clamp, hERG-CHO cells, read-out: hERG inhibition IC50; for hERG inhibition IC50 (nmol/L)/5-HT1A Ki (nmol/L): ratio of hERG IC50 to 5-HT1A Ki; for hERG inhibition IC50 (nmol/L)/5-HT2A Ki (nmol/L): ratio of hERG IC50 to 5-HT2A Ki. The procedure, abridged: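 Whole-cell patch clamp on an automated system using CHO cells stably expressing human hERG (IKr); 15 s pulse interval. Four increasing compound concentrations applied cumulatively; mean peak tail current from last 3 stimulations per concentration used. IC50 from inhibition versus pre-compound current, fitted by Hill equation.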
In general terms: Block of hERG is tested as a sign of cardiac risk.

T2 sequence (P28223 whole entry): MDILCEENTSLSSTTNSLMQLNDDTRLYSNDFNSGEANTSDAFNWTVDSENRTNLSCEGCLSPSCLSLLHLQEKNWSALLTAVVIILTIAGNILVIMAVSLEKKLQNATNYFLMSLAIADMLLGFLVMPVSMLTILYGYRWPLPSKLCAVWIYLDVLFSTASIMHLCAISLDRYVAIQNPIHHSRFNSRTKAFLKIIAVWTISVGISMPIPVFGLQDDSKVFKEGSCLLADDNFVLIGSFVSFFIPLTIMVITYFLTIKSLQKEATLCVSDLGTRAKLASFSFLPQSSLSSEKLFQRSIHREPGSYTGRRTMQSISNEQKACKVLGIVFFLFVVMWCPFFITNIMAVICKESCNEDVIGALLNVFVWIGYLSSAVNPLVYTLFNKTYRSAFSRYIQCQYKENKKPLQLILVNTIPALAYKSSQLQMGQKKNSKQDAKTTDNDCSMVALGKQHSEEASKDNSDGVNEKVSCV
Chain of hERG channel (Q12809 whole entry): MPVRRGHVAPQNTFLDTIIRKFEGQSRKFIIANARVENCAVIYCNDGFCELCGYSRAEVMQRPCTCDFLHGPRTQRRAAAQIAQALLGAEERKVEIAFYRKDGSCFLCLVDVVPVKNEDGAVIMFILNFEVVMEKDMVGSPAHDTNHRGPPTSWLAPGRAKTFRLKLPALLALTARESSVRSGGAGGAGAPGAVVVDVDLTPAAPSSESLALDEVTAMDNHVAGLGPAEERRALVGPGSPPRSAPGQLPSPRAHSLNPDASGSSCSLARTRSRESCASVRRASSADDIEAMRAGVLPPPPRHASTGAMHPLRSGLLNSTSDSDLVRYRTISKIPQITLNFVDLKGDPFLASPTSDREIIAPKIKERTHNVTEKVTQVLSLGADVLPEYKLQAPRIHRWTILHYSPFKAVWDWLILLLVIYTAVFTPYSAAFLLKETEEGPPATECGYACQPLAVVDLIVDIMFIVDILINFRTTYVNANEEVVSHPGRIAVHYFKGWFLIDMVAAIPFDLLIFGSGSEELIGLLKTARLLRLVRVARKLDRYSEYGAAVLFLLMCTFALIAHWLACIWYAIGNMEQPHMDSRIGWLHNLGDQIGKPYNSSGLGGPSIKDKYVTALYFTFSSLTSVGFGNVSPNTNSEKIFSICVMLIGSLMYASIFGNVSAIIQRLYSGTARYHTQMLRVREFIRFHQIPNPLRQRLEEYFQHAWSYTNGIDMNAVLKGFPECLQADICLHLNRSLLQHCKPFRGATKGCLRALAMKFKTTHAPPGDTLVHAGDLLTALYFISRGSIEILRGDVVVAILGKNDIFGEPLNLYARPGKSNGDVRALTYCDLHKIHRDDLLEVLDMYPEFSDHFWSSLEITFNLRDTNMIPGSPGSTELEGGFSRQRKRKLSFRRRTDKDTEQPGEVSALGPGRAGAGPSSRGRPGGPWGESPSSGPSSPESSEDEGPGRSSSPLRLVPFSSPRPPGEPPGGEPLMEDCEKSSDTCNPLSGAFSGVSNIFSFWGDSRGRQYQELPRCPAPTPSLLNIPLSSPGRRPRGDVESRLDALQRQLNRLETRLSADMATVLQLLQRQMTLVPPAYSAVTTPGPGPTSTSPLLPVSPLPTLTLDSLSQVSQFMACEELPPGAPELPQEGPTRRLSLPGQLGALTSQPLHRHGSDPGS
Chain of human D2 receptor (P14416 whole entry): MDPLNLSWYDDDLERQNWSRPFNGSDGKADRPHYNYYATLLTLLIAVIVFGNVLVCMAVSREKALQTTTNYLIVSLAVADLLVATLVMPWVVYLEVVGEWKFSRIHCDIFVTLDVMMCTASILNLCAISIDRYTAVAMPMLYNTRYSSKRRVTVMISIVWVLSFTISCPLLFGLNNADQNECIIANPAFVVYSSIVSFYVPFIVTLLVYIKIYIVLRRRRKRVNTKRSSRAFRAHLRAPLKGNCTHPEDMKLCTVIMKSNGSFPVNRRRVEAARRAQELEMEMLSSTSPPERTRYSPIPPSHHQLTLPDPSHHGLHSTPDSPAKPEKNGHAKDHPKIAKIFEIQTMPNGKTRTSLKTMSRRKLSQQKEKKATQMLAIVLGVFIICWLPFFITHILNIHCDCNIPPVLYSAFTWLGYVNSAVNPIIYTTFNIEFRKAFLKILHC
T1 sequence (P08908 whole entry): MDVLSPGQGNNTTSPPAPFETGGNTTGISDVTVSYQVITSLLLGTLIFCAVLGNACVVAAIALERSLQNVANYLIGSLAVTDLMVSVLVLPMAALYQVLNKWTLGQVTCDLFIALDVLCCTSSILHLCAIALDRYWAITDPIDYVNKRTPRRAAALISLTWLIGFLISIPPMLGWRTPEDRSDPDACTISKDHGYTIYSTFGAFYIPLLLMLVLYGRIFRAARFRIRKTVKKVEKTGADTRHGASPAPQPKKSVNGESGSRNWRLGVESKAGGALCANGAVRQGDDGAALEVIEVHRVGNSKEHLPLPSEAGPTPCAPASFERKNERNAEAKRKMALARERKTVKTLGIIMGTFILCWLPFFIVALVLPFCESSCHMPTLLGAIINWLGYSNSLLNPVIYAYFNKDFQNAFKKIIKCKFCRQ

One may read the Ki as the dissociation constant of the complex between target and ligand, obtained from inhibition or displacement. A low value points to tighter binding. The term EC50 denotes the concentration at which the effect is half-maximal. A high value points to a need for much substance. As usually defined, the Emax is the greatest response seen or fitted, relative to the assay's reference. As usually defined, the IC50 is the concentration needed to halve the response being measured. For `Cn1ncc2c1CCN(CCN1CCN(c3noc4ccccc34)CC1)C2=O` [Example 131], the Ki on human 5-HT1A receptor [1] is 279 nM; on human 5-HT2A receptor [2], 12 nM; at human D2 receptor, over 10000 nM. Also, a half-maximal effect on human 5-HT1A receptor [3] (EC50) was put at 405 nM. The Emax at 10 µM on human 5-HT1A receptor [3] was determined as 48%. Moreover, the IC50 at human 5-HT2A receptor [4] (aequorin luminescence) is 9.53 nM; on hERG channel, over 3000 nM. For the same molecule, the “Metabolic stability in human hepatic microsome” value (shortened to “Metabolic stability”) in data set [5] is under 0.05 mL/min/mg protein.

In the case of `O=c1c2cnccc2ccn1CCN1CCN(c2noc3ccccc23)CC1` [Example 116], the Ki was 128 nM at human 5-HT1A receptor [1], 26 nM at human 5-HT2A receptor [2] and over 10000 nM at human D2 receptor. This molecule registered an EC50 on human 5-HT1A receptor [3] of 882 nM. Besides, on human 5-HT1A receptor [3], the Emax at 10 µM worked out at 60%. The results for the IC50 on human 5-HT2A receptor [4] (aequorin luminescence) and at hERG channel were 49.7 nM and 5300 nM, respectively. Also, in data set [5], the “Metabolic stability” value is on record as 0.1 mL/min/mg protein.

On to `Cn1ccc2c1CCCN(CCN1CCC(c3noc4ccccc34)C1)C2=O` (stereo not drawn) [Example 175], for which the affinity on human 5-HT1A receptor [1] corresponds to a Ki of 17.8 nM. On human 5-HT2A receptor [2], the affinity corresponds to a Ki of 13.8 nM. At human D2 receptor, the Ki came out at 3480 nM, the “D2 Ki/5-HT1A Ki” value is reported as 195.2 and the “D2 Ki/5-HT2A Ki” value turned out to be 251.4. Moreover, at human 5-HT1A receptor [3], a half-maximal effect (EC50) was put at 667 nM and the Emax at 10 µM came out at 36%. The IC50 against human 5-HT2A receptor [4] (aequorin luminescence) was 307 nM. In addition, the “Metabolic stability” value in data set [5] is recorded as 0.125 mL/min/mg protein. Moreover, on hERG channel, the “hERG inhibition IC50 (nmol/L)/5-HT1A Ki (nmol/L)” value stood at 197, the “hERG inhibition IC50 (nmol/L)/5-HT2A Ki (nmol/L)” value was 253 and the IC50 turned out to be 3500 nM.

In turn, `O=C1c2ncoc2CCN1CCN1CCC(c2noc3ccccc23)CC1` [Example 190, 5-{2-[4-(1,2-Benzoisoxazol-3-yl)piperidin-1-yl]ethyl}-6,7-dihydro[1,3]oxazolo[4,5-c]pyridin-4(5H)-one] had a Ki at human 5-HT1A receptor [1] of 50 nM. In addition, the Ki at human 5-HT2A receptor [2] was found to be 51.4 nM. In addition, at human D2 receptor, the inhibition constant Ki is 2460 nM, the “D2 Ki/5-HT1A Ki” value is 49.3 and the “D2 Ki/5-HT2A Ki” value was determined as 47.9. For the same molecule, at human 5-HT1A receptor [3], a half-maximal effect (EC50) was put at 7210 nM and the Emax at 10 µM was 11%. Besides, half-maximal inhibition on human 5-HT2A receptor [4] (aequorin luminescence) (IC50) was put at 237 nM. In data set [5], the “Metabolic stability” value was under 0.05 mL/min/mg protein. For the same molecule, at hERG channel, the “hERG inhibition IC50 (nmol/L)/5-HT1A Ki (nmol/L)” value stood at 32, the “hERG inhibition IC50 (nmol/L)/5-HT2A Ki (nmol/L)” value is 31 and the IC50 turned out to be 1600 nM.

For `Cc1noc2c1C(=O)N(CCN1CCN(c3noc4ccccc34)CC1)CC2` [Example 32, 5-{2-[4-(1,2-Benzoisoxazol-3-yl)piperazin-1-yl]ethyl}-3-methyl-6,7-dihydro[1,2]oxazolo[4,5-c]pyridin-4(5H)-one], the Ki on human 5-HT1A receptor [1] was 124 nM; on human 5-HT2A receptor [2], 60 nM. Also, a half-maximal effect on human 5-HT1A receptor [3] (EC50) was put at 644 nM. Besides, the Emax at 10 µM on human 5-HT1A receptor [3] came to 39%. Also, the values for the half-inhibitory concentration (IC50) on human 5-HT2A receptor [4] and at hERG channel were 95 nM and 5500 nM, respectively. In addition, the “Metabolic stability” value in data set [5] was under 0.01 mL/min/mg protein.

Take `Cc1nc2c(o1)C(=O)N(CCN1CCC(c3noc4ccccc34)CC1)CCC2` [Example 154]: the Ki at human 5-HT1A receptor [1] turned out to be 20.2 nM. The molecule further returned a Ki at human 5-HT2A receptor [2] of 13.1 nM. On human D2 receptor, the Ki was 718 nM, the “D2 Ki/5-HT1A Ki” value stood at 35.6 and the “D2 Ki/5-HT2A Ki” value came to 54.9. For the same molecule, at human 5-HT1A receptor [3], it took 45.1 nM to reach a half-maximal effect (EC50) and the Emax at 10 µM was determined as 58%. This molecule also displayed an IC50 on human 5-HT2A receptor [4] (aequorin luminescence) of 316 nM. Further, the “Metabolic stability” value in data set [5] is listed as under 0.05 mL/min/mg protein. In addition, on hERG channel, the “hERG inhibition IC50 (nmol/L)/5-HT1A Ki (nmol/L)” value is recorded as 35, the “hERG inhibition IC50 (nmol/L)/5-HT2A Ki (nmol/L)” value was 54 and the IC50 is 700 nM.

For the molecule `CC1(CCN2CCN(c3noc4ccccc34)CC2)CCc2cccnc2C1=O` (stereo not drawn) [Example 145], the Ki on human 5-HT1A receptor [1] came to 38.1 nM; at human 5-HT2A receptor [2], 1.15 nM. Besides, the midpoint of the response on human 5-HT1A receptor [3], the EC50, lay at 55.1 nM. Further, on human 5-HT1A receptor [3], the Emax at 10 µM came out at 58%. For the same molecule, the results for the IC50 at human 5-HT2A receptor [4] (aequorin luminescence) and on hERG channel were 19 nM and over 3000 nM, respectively. Besides, in data set [5], the “Metabolic stability” value is on record as 0.302 mL/min/mg protein.
